Reference: patent US7459444B2, “Inhibitors of chymase” (Janssen Pharmaceutica N.V., priority 2004, dated 2008)

Tests used:
angiotensin II activity = settings: human vascular extracts; cited from earlier work
[1] = test system: Ascaris suum antigen-induced asthmatic response in conscious sheep; test: Ascaris suum antigen-induced asthmatic response in conscious sheep; type: in vivo; settings: for early airway response (0-2 h after antigen challenge) / late airway response (6-8 h after antigen challenge): n=2 sheep/group
Experimental: The efficacy of Compound 17 for the treatment of asthma was evaluated in a validated model of Ascaris suum antigen-induced asthmatic response in conscious sheep (Abraham, W. M., Pharmacology of allergen-induced early and late airway responses and antigen-induced airway hyperresponsiveness in allergic sheep, Pulmonary Pharmacology, 1989, 2, 33-40).
Baseline (BSL) dose response curves to aerosol carbachol were obtained from historical control responses prior to antigen challenge. Baseline values of specific lung resistance (SRL) were obtained and the sheep were then given a specified amount (mg) of the test compound as an inhaled aerosol or as a oral dose at a specified time before antigen challenge. Post-drug measurements of SRL were obtained and the sheep were then challenged with Ascaris suum antigen. Measurements of SRL were obtained immediately after challenge, hourly from 1-6 h after challenge and on the half-hour from 6½-8 h after challenge. Measurements of SRL were obtained 24 h after challenge followed by a 24 h post-challenge with carbachol to measure airway hyperreactivity.
Compound 17 was administered as an aerosol at 4.5 mg/dose (ca. 0.1 mg/Kg/dose, based on a 45 Kg sheep), twice-a-day (BID) for three consecutive days, followed by a dose on day 4, 0.5 h prior to antigen challenge. Ascaris suum antigen challenge was given at the zero time point.
Compound 17 was administered as an oral solution at 15 mg/Kg/dose, twice-a-day (BID) for three consecutive days, followed by a dose on day 4, 2 h prior to antigen challenge. Ascaris suum antigen challenge was given at the zero time point.

[2] = aerosol 4.5 mg/dose BID for three days plus dose on day 4, 0.5 h prior to antigen challenge, FIG. 1
[3] = oral solution 15 mg/Kg/dose BID for three days plus dose on day 4, 2 h prior to antigen challenge, FIG. 3

For `NCCCC[C@H](N[C@@H](CCc1ccccc1)C(=O)O)C(=O)N1CCC[C@H]1C(=O)O` [lisinopril], the “angiotensin II activity inhibited” value (angiotensin II activity) is given as “about 8%”.
In the case of `CP(=O)(O)C(C(=O)N/C=C/c1ccc(F)c(F)c1)c1csc2ccc(Cl)cc12` (stereo not shown) [Cpd 17], the “early airway response (0-2 h after antigen challenge)” value [1, 2] is reported as “unchanged”, the “late airway response (6-8 h after antigen challenge)” value [1, 2] is reported as “completely blocked” and the “delayed airway hyperreactivity at 24 h post antigen challenge (carbachol challenge)” value ([1]; aerosol administration, FIG. 2) is reported as “completely blocked”. The “delayed airway hyperreactivity at 24 h post antigen challenge (carbachol challenge)” value ([1]; oral administration, FIG. 4) was “completely blocked”, the “early airway response (0-2 h after antigen challenge)” value [1, 3] was “unchanged” and the “late airway response (6-8 h after antigen challenge)” value [1, 3] was “completely blocked”.
